Reference: ChEMBL document CHEMBL1201862, “PubChem BioAssay data set” (2004)
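These data come from cells grown in 96-well plates and exposed to compound for 48 hours at five concentrations. The concentration for 50% growth inhibition is given as GI50.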 Calls of active or inactive are those of the source. No stated cut-off is given here; in the data, active = GI50 up to about 1.1 µM and inactive = higher.

Tests used:
Assay in all cases: DTP human tumour cell line panel, 48 h
SN12C = system: SN12C
LXFL 529 = system: LXFL 529
HOP-62 = system: HOP-62
EKVX = system: EKVX
HT-29 = system: HT-29
NCI-H460 = system: NCI-H460
A498 = system: A498
SK-MEL-5 = system: SK-MEL-5
A549 = system: A549
HL-60 = system: HL-60
CCRF-CEM = system: CCRF-CEM
HCT-15 = system: HCT-15
DLD-1 = system: DLD-1
MOLT-4 = system: MOLT-4
K562 = system: K562
NCI-H23 = system: NCI-H23
OVCAR-4 = system: OVCAR-4
SF-268 = system: SF-268
OVCAR-8 = system: OVCAR-8
SF-539 = system: SF-539

Row | Structure (SMILES) | GI50 (SN12C) | GI50 (LXFL 529) | GI50 (HOP-62) | GI50 (EKVX) | GI50 (HT-29) | GI50 (NCI-H460) | GI50 (A498) | GI50 (SK-MEL-5) | GI50 (A549) | GI50 (HL-60) | GI50 (CCRF-CEM) | GI50 (HCT-15) [µM] | GI50 (DLD-1) | GI50 (MOLT-4) | GI50 (K562) | GI50 (NCI-H23) | GI50 (OVCAR-4) | GI50 (SF-268) | GI50 (OVCAR-8) | GI50 (SF-539)
1 | C=CCN1/C(=C(\C#N)c2nc3ccccc3[nH]2)Sc2c1nc[nH]c2=O | > 100 µM (inactive) | > 100 µM (inactive) | > 100 µM (inactive) | > 100 µM (inactive) | > 100 µM (inactive) | > 100 µM (inactive) | > 100 µM (inactive) | > 100 µM (inactive) | > 100 µM (inactive) | > 100 µM (inactive) | > 100 µM (inactive) | > 100 | > 100 µM (inactive) | > 100 µM (inactive) | > 100 µM (inactive) | > 100 µM (inactive) | > 100 µM (inactive) | > 100 µM (inactive) | > 100 µM (inactive) | > 100 µM (inactive)
2 | CC(OC(C)(C)C)[C@H](NC(=O)OCC(Cl)(Cl)Cl)C(=O)O (stereo partly drawn) | > 100 µM (inactive) | > 100 µM (inactive) | > 100 µM (inactive) | > 100 µM (inactive) | > 100 µM (inactive) | > 100 µM (inactive) | > 100 µM (inactive) | > 100 µM (inactive) | > 100 µM (inactive) | > 100 µM (inactive) | > 100 µM (inactive) | > 100 | > 100 µM (inactive) | > 100 µM (inactive) | > 100 µM (inactive) | > 100 µM (inactive) | > 100 µM (inactive) | > 100 µM (inactive) | > 100 µM (inactive) | > 100 µM (inactive)
3 | CCOC(=O)C1=C(C)N(C2OC(COC(=O)c3ccccc3)C(OC(=O)c3ccccc3)C2OC(=O)c2ccccc2)C(=S)NC1c1ccccc1 (stereo not drawn) | 40.4 µM (inactive) | 27.2 µM (inactive) | > 100 µM (inactive) | 6.79 µM (inactive) | 50.6 µM (inactive) | 31.4 µM (inactive) | 28.2 µM (inactive) | 18.4 µM (inactive) | 37.4 µM (inactive) | 14.4 µM (inactive) | 23.1 µM (inactive) |  | 38.9 µM (inactive) | 16.1 µM (inactive) | 17.1 µM (inactive) | 29.1 µM (inactive) | 29.4 µM (inactive) | 44.6 µM (inactive) | 44.4 µM (inactive) | 54.8 µM (inactive)
4 | Cc1ccc(-c2cc(-c3ccco3)c(C#N)c(=O)n2C2OC(CO)C(O)C(O)C2O)cc1 (stereo not drawn) | 46.3 µM (inactive) | 61.9 µM (inactive) | 49.5 µM (inactive) | > 100 µM (inactive) | > 100 µM (inactive) | 37.1 µM (inactive) | 21.6 µM (inactive) | 22 µM (inactive) |  | > 100 µM (inactive) | 66.2 µM (inactive) | 83.6 | 67.6 µM (inactive) | > 100 µM (inactive) | > 100 µM (inactive) | 37.1 µM (inactive) | 35.7 µM (inactive) | 53 µM (inactive) | 32.2 µM (inactive) | 
5 | CCOC(=O)C(Cc1ccccc1)NC(=O)OC(C)(C)C (stereo not drawn) | > 100 µM (inactive) | > 100 µM (inactive) | > 100 µM (inactive) |  | > 100 µM (inactive) | > 100 µM (inactive) | > 100 µM (inactive) |  | > 100 µM (inactive) | > 100 µM (inactive) | > 100 µM (inactive) | > 100 | > 100 µM (inactive) | > 100 µM (inactive) | > 100 µM (inactive) | > 100 µM (inactive) |  | > 100 µM (inactive) | > 100 µM (inactive) | > 100 µM (inactive)
6 | O=C(/C=C/c1cccc2ccccc12)c1ccccc1Cl | > 100 µM (inactive) | 13.8 µM (inactive) | 18.6 µM (inactive) | 15.1 µM (inactive) | 13.6 µM (inactive) | 13.5 µM (inactive) | 16 µM (inactive) | 16.9 µM (inactive) | 25.8 µM (inactive) | 2.65 µM (inactive) | 3.72 µM (inactive) | 6.53 | 7.89 µM (inactive) | 3.85 µM (inactive) | 5.57 µM (inactive) | 14.3 µM (inactive) | 15.1 µM (inactive) | 18.4 µM (inactive) | 13.6 µM (inactive) | 17.5 µM (inactive)
7 | O=C1C=CC2=[N+]([O-])C(c3ccccc3)(c3ccccc3)/C(=N\c3ccccc3)C2=C1 | 2.22 µM (inactive) | 1.78 µM (inactive) | 14.6 µM (inactive) | 4.14 µM (inactive) | 2.41 µM (inactive) | 11 µM (inactive) |  | 14.2 µM (inactive) | 15.4 µM (inactive) | 0.349 µM (active) | 0.407 µM (active) | 2.03 | 1.53 µM (inactive) | 1.27 µM (inactive) | 2.1 µM (inactive) | 2.38 µM (inactive) | 1.8 µM (inactive) | 3.28 µM (inactive) | 1.75 µM (inactive) | 6.85 µM (inactive)
8 | CN1NC(c2ccccc2)=C(C#N)C(=O)CC1c1ccc(Br)cc1 (stereo not drawn) | 44.9 µM (inactive) | 35.7 µM (inactive) | 21.4 µM (inactive) |  | 28.9 µM (inactive) | 33.3 µM (inactive) | 40.4 µM (inactive) | 14.2 µM (inactive) | 32.2 µM (inactive) | 29 µM (inactive) |  | 24.3 | 26.1 µM (inactive) |  |  | 56.4 µM (inactive) | 45.6 µM (inactive) | 35.9 µM (inactive) |  | 
9 | O=C1NC2=C(CCCC/C2=N\O)C12CCCCC2 | > 100 µM (inactive) | > 100 µM (inactive) | > 100 µM (inactive) | > 100 µM (inactive) | > 100 µM (inactive) | > 100 µM (inactive) | > 100 µM (inactive) |  | > 100 µM (inactive) | 32.7 µM (inactive) |  | > 100 | > 100 µM (inactive) | 57.8 µM (inactive) | > 100 µM (inactive) | > 100 µM (inactive) | > 100 µM (inactive) | > 100 µM (inactive) |  | > 100 µM (inactive)
10 | COC(=O)C12CC3CC(CC(C(=O)O)(C3)C1)C2 | > 100 µM (inactive) | > 100 µM (inactive) | > 100 µM (inactive) | > 100 µM (inactive) | > 100 µM (inactive) | > 100 µM (inactive) | > 100 µM (inactive) | > 100 µM (inactive) | > 100 µM (inactive) | > 100 µM (inactive) | > 100 µM (inactive) | > 100 |  | > 100 µM (inactive) | > 100 µM (inactive) | > 100 µM (inactive) | > 100 µM (inactive) | > 100 µM (inactive) | > 100 µM (inactive) | > 100 µM (inactive)
11 | O=C(O)Cc1cccc2c1Oc1ccccc1S2 | > 100 µM (inactive) | > 100 µM (inactive) | > 100 µM (inactive) | > 100 µM (inactive) | > 100 µM (inactive) | > 100 µM (inactive) | > 100 µM (inactive) | > 100 µM (inactive) | > 100 µM (inactive) | > 100 µM (inactive) | > 100 µM (inactive) | > 100 | > 100 µM (inactive) | > 100 µM (inactive) | > 100 µM (inactive) | > 100 µM (inactive) | > 100 µM (inactive) | > 100 µM (inactive) | > 100 µM (inactive) | > 100 µM (inactive)
12 | C[C@]12CCC(=O)C(O)=C1CC[C@@H]1[C@@H]2CC[C@]2(C)C(=O)CC[C@@H]12 [FORMESTANE] | > 100 µM (inactive) | 59.3 µM (inactive) | > 100 µM (inactive) | > 88.9 µM (inactive) | > 92.7 µM (inactive) | > 100 µM (inactive) | > 84.5 µM (inactive) | > 93.5 µM (inactive) | > 100 µM (inactive) | > 80.9 µM (inactive) | > 100 µM (inactive) | > 100 | > 100 µM (inactive) | > 75.9 µM (inactive) | > 89.9 µM (inactive) | > 100 µM (inactive) | > 100 µM (inactive) | > 100 µM (inactive) | > 100 µM (inactive) | > 100 µM (inactive)
